According to PMC11855827, “High-Throughput Screening of Five Compound Libraries for Anthelmintic Activity and Toxicity Leads to the Discovery of Two Flavonoid Compounds” (International Journal of Molecular Sciences, 2025):
Several values for one entry are separate records, joined by “and”; a condition that tells them apart may be missing. Equal values may be shown once. Read-outs that look alike come from different tables or passages of the source.

System: C. elegans
[1] = Table S2, C. elegans SS assay, 110 μM, 0 h, averages of 4 data points
[2] = Table S2, C. elegans SS assay, 110 μM, 24 h, averages of 4 data points

Clc1ccc(CCC(Cn2ccnc2)Sc2c(Cl)cccc2Cl)cc1.O=[N+]([O-])O (stereo not drawn) [Butoconazole (nitrate)]
Percentage of motility inhibition 0 h [1]: 45% | Percentage of motility inhibition 24 h [2]: 46%

Hyaluronic acid
Percentage of motility inhibition 0 h [1]: 0% | Percentage of motility inhibition 24 h [2]: 4%

C[C@H]1CC[C@@H]2N(C1)C[C@H]1[C@@H]3C[C@H]4[C@@H](CC(=O)[C@H]5C[C@@H](O[C@@H]6O[C@H](CO)[C@@H](O)[C@H](O)[C@H]6O)CC[C@@]54C)[C@@H]3CC[C@H]1[C@]2(C)O [Imperialine 3‐β‐D‐glucoside]
Percentage of motility inhibition 0 h [1]: 10% | Percentage of motility inhibition 24 h [2]: 10%

Br.COc1ccc2c3c1O[C@H]1C[C@@H](O)C=C[C@@]31CCN(C)C2 [Galanthamine (hydrobromide)]
Percentage of motility inhibition 0 h [1]: 2% and 0%

Cc1onc(-c2ccccc2)c1C(=O)N[C@@H]1C(=O)N2[C@@H]1SC(C)(C)[C@@H]2C(=O)[O-].O.[Na+] [Oxacillin (sodium monohydrate)]
Percentage of motility inhibition 0 h [1]: 27% | Percentage of motility inhibition 24 h [2]: 9%

C/C=C1/CN2[C@H]3Cc4c([nH]c5ccccc45)[C@]2(O)C[C@@H]1[C@@]3(CO)C(=O)OC [16‐Epivoacarpine]
Percentage of motility inhibition 0 h [1]: 7% | Percentage of motility inhibition 24 h [2]: 2%

O=c1cc(-c2ccc(O)cc2)oc2c(C3O[C@H](CO)[C@@H](O[C@@H]4O[C@H](CO)[C@@H](O)[C@H](O)[C@H]4O)[C@H](O)[C@H]3O)c(O)cc(O)c12 (stereo partly drawn) [4”‐O‐Glucosylvitexin]
Percentage of motility inhibition 0 h [1]: 0% | Percentage of motility inhibition 24 h [2]: 0%

Engeletin
Percentage of motility inhibition 0 h [1]: 11% | Percentage of motility inhibition 24 h [2]: 9%

(‐)‐Alkannin
Percentage of motility inhibition 0 h [1]: 12% | Percentage of motility inhibition 24 h [2]: 7%

C/C=C/c1cc(OC)c(OC)cc1OC [alpha-Asarone]
Percentage of motility inhibition 0 h [1]: 49% | Percentage of motility inhibition 24 h [2]: 29%

CC1(C)CC(NC(=O)C(=O)Nc2ccc(Cl)cc2)CC(C)(C)N1 [NBD‐556]
Percentage of motility inhibition 0 h [1]: 45% | Percentage of motility inhibition 24 h [2]: 11%

CCOc1ccc2ccccc2c1C(=O)N[C@@H]1C(=O)N2[C@@H]1SC(C)(C)[C@@H]2C(=O)[O-].O.[Na+] [Nafcillin (sodium monohydrate)]
Percentage of motility inhibition 0 h [1]: 12% | Percentage of motility inhibition 24 h [2]: 2%

Nc1ncnc2c1ncn2[C@@H]1O[C@H](COP(=O)(O)O)[C@@H](O)[C@H]1O [Adenosine monophosphate]
Percentage of motility inhibition 0 h [1]: 8% | Percentage of motility inhibition 24 h [2]: 6%

CC(C)=CCC[C@@](C)(O)[C@H]1CC[C@]2(C)[C@@H]1[C@H](O)C[C@@H]1[C@@]3(C)CC[C@H](O)C(C)(C)[C@@H]3[C@@H](O[C@@H]3O[C@H](CO)[C@@H](O)[C@H](O)[C@H]3O[C@@H]3O[C@@H](C)[C@H](O)[C@@H](O)[C@H]3O)C[C@]12C [20(R)-Ginsenoside Rg2]
Percentage of motility inhibition 0 h [1]: 0% | Percentage of motility inhibition 24 h [2]: 8%

C[N+]1(C)CCC[C@H]1C(=O)[O-].Cl [Stachydrine hydrochloride]
Percentage of motility inhibition 0 h [1]: 15% | Percentage of motility inhibition 24 h [2]: 26%

COc1ccc(-c2oc3c(CC=C(C)C)c(O)cc(O)c3c(=O)c2O[C@@H]2O[C@@H](C)[C@H](O)[C@@H](O)[C@H]2O[C@@H]2O[C@@H](C)[C@H](O)[C@@H](O)[C@H]2O)cc1 [2''‐O‐Rhamnosylicariside II]
Percentage of motility inhibition 0 h [1]: 0% | Percentage of motility inhibition 24 h [2]: 13%

C[C@H]1CC[C@@H]2N(C1)C[C@H]1[C@@H]3C[C@H]4[C@@H](C[C@H](O)[C@H]5C[C@@H](O)CC[C@@]54C)[C@@H]3CC[C@@H]1[C@]2(C)O [Peimine]
Percentage of motility inhibition 0 h [1]: 7% | Percentage of motility inhibition 24 h [2]: 0%

COc1cc(O)c2c(=O)cc(-c3ccccc3)oc2c1 [Tecto chrysin]
Percentage of motility inhibition 0 h [1]: 0% | Percentage of motility inhibition 24 h [2]: 11%

CC(CC(=O)CC(C)(O)C1CC(=O)C2(C)C3=C(C(=O)CC12C)C1(C)CCC(=O)C(C)(C)C1CC3O)C(=O)O (stereo not drawn) [Ganoderic acid N]
Percentage of motility inhibition 0 h [1]: 0% | Percentage of motility inhibition 24 h [2]: 0%

O=C(O)[C@H]1O[C@@H](Oc2cc(O)c3c(=O)cc(-c4ccccc4)oc3c2)[C@H](O)[C@@H](O)[C@@H]1O [Chrysin‐7‐O‐glucuronide]
Percentage of motility inhibition 0 h [1]: 0% | Percentage of motility inhibition 24 h [2]: 37%

CCCCCCCCCCCCCCCC(=O)NCc1ccccc1 [N‐Benzylpalmitamide]
Percentage of motility inhibition 0 h [1]: 0% | Percentage of motility inhibition 24 h [2]: 20%

CC(C)C1=CC2C(CCC2(C)O)C(C)(O)CC1 (stereo not drawn) [1αH,5αH-Guaia-6-ene-4β,10β-diol]
Percentage of motility inhibition 0 h [1]: 0% | Percentage of motility inhibition 24 h [2]: 27%

C[C@@H]1O[C@@H](O[C@H]2[C@H](O[C@H]3CC[C@@]4(C)[C@@H](CC[C@]5(C)[C@@H]4CC=C4[C@@H]6CC(C)(C)CC[C@]6(C(=O)O)CC[C@]45C)[C@]3(C)CO)OC[C@H](O[C@@H]3O[C@H](CO)[C@@H](O)[C@H](O)[C@H]3O)[C@@H]2O)[C@H](O)[C@H](O)[C@H]1O [Pulsatilla saponin D]
Percentage of motility inhibition 0 h [1]: 0% | Percentage of motility inhibition 24 h [2]: 0%

Dryocrassin ABBA
Percentage of motility inhibition 0 h [1]: 12% | Percentage of motility inhibition 24 h [2]: 18%

CO/N=C(\C(=O)N[C@@H]1C(=O)N2C(C(=O)[O-])=C(CSC(=O)c3ccco3)CS[C@H]12)c1csc(N)n1.[Na+] [Ceftiofur (sodium)]
Percentage of motility inhibition 0 h [1]: 17% | Percentage of motility inhibition 24 h [2]: 1%

C/C(=C\C=C\[C@@]1(C)OC(=O)[C@]23CC=C(C(=O)O)CC[C@]2(O)[C@H]1CC3)C(=O)O [Demethoxydeacetoxypseudolaric acid B]
Percentage of motility inhibition 0 h [1]: 0% | Percentage of motility inhibition 24 h [2]: 0%

CC(=O)O[C@@H]1C[C@@]23C[C@@]24CC[C@H](O[C@@H]2OC[C@@H](O)[C@H](O)[C@H]2O)C(C)(C)[C@@H]4CC[C@H]3[C@]2(C)C[C@@H]3O[C@@]4(C[C@@H](C)[C@@H]3[C@@]12C)OC[C@@]1(C)O[C@@H]41 [23-epi-26-Deoxyactein]
Percentage of motility inhibition 0 h [1]: 0% | Percentage of motility inhibition 24 h [2]: 5%

COc1cc2c3c(c1OC)-c1ccccc1C[C@H]3[N+](C)(C)CC2 [N‐Methylnuciferine]
Percentage of motility inhibition 0 h [1]: 0% | Percentage of motility inhibition 24 h [2]: 0%

C[C@@H]1O[C@@H](O[C@H]2[C@H](OC(=O)[C@]34CCC(C)(C)C[C@H]3C3=CC[C@@H]5[C@@]6(C)C[C@H](O)[C@H](O[C@@H]7O[C@H](CO)[C@@H](O)[C@H](O)[C@H]7O)[C@](CO)(C(=O)O)[C@@H]6CC[C@@]5(C)[C@]3(C)C[C@H]4O)OC[C@H](O)[C@@H]2O)[C@H](O)[C@H](O)[C@H]1O[C@@H]1OC[C@@H](O)[C@H](O[C@@H]2OC[C@](O)(CO)[C@H]2O)[C@H]1O [Platyconic acid A]
Percentage of motility inhibition 0 h [1]: 0% | Percentage of motility inhibition 24 h [2]: 5%

CC(=O)O[C@H]1C(=O)[C@@]2(C)[C@H]([C@H](OC(=O)c3ccccc3)[C@]3(O)C[C@H](OC(=O)[C@H](O)[C@@H](NC(=O)c4ccccc4)c4ccccc4)C(C)=C1C3(C)C)[C@]1(OC(C)=O)CO[C@@H]1C[C@@H]2O [7-epi-Taxol]
Percentage of motility inhibition 0 h [1]: 13% | Percentage of motility inhibition 24 h [2]: 11%

C=CC(=C)CCCC(C)CCCC(C)CCCC(C)C (stereo not drawn) [Neophytadiene]
Percentage of motility inhibition 0 h [1]: 3% | Percentage of motility inhibition 24 h [2]: 6%

O=C([O-])C1=C(CSc2nnnn2CS(=O)(=O)[O-])CS[C@@H]2[C@H](NC(=O)[C@H](O)c3ccccc3)C(=O)N12.[Na+].[Na+] [Cefonicid (sodium)]
Percentage of motility inhibition 0 h [1]: 0% | Percentage of motility inhibition 24 h [2]: 2%

C[C@@H]1CC[C@]2(C(=O)O[C@@H]3O[C@H](CO)[C@@H](O)[C@H](O)[C@H]3O)CC[C@]3(C)C(=CC[C@@H]4[C@@]5(C)CC[C@H](O[C@@H]6OC[C@H](O)[C@H](O)[C@H]6O)C(C)(C)[C@@H]5CC[C@]43C)[C@@H]2[C@]1(C)O [Ziyuglycoside I]
Percentage of motility inhibition 0 h [1]: 0% | Percentage of motility inhibition 24 h [2]: 6%

Retrorsine
Percentage of motility inhibition 0 h [1]: 28% | Percentage of motility inhibition 24 h [2]: 9%

C=C1C2CCC3(C4C[C@H]5C6(CCC[C@@]5(C)CN(CC)C46)[C@H]3[C@H]2O)[C@@H]1O [Bullatine A]
Percentage of motility inhibition 0 h [1]: 0% | Percentage of motility inhibition 24 h [2]: 3%

CC(C)OC(=O)OCOP(=O)(CO[C@H](C)Cn1cnc2c(N)ncnc21)OCOC(=O)OC(C)C [Tenofovir (Disoproxil)]
Percentage of motility inhibition 0 h [1]: 23% | Percentage of motility inhibition 24 h [2]: 7%

CNC(=O)Oc1ccc2c(c1)[C@]1(C)CCN(C)[C@@H]1N2C.O=C(O)c1ccccc1O [Physostigmine (salicylate)]
Percentage of motility inhibition 0 h (110 µM): 0% | Percentage of motility inhibition 24 h (110 µM): 0%

CC(=O)O.NCc1ccc(S(N)(=O)=O)cc1 [Mafenide (Acetate)]
Percentage of motility inhibition 0 h [1]: 21% | Percentage of motility inhibition 24 h [2]: 10%

Dictamine
Percentage of motility inhibition 0 h (110 µM): 0% | Percentage of motility inhibition 24 h (110 µM): 20%

C[C@H](CC[C@@H](O[C@@H]1O[C@H](CO)[C@@H](O)[C@H](O)[C@H]1O)C(C)(C)O)[C@H]1CC[C@@]2(C)[C@@H]3CC=C4[C@@H](CC[C@H](O[C@@H]5O[C@H](CO)[C@@H](O)[C@H](O)[C@H]5O)C4(C)C)[C@]3(C)[C@H](O)C[C@]12C [Mogroside IIe]
Percentage of motility inhibition 0 h [1]: 0% | Percentage of motility inhibition 24 h [2]: 7%

C[C@H]1[C@H](C)CC[C@]2(C)CC[C@]3(C)C(=CC(=O)[C@@H]4[C@@]5(C)CC[C@@H](O)[C@](C)(C(=O)O)[C@@H]5CC[C@]43C)[C@H]12 [11-Keto-beta-boswellic acid]
Percentage of motility inhibition 0 h [1]: 2% | Percentage of motility inhibition 24 h [2]: 0%

CC(C)CCC[C@@H](C)[C@H]1CC[C@@]2(C)C3=C(CC[C@]12C)[C@@]1(C)CC[C@H](O)C(C)(C)[C@@H]1CC3 [24,25-Dihydrolanosterol]
Percentage of motility inhibition 0 h [1]: 3% | Percentage of motility inhibition 24 h [2]: 4%

COc1ccc([C@@H]2COc3cc(O[C@@H]4O[C@H](CO)[C@@H](O)[C@H](O)[C@H]4O)ccc3C2)c(O)c1OC [Isomucronulatol 7‐O‐glucoside]
Percentage of motility inhibition 0 h [1]: 8% | Percentage of motility inhibition 24 h [2]: 10%

COc1cc(O)cc(O)c1C(=O)/C=C/c1ccccc1 [Cardamonin]
Percentage of motility inhibition 0 h [1]: 0% | Percentage of motility inhibition 24 h [2]: 13%
